Data reported in patent publication US20260335277A1, “CHLOROTONIL DERIVATIVES” (priority 2023, published 2026).
Converted amounts (≈) assume the structure as drawn.

Tests used:
[1] = system: S. epidermidis DSM-28765; experiment: MIC testing (broth microdilution, EUCAST); format: cell-based; details: for MIC: Staphylococcus epidermidis, DSM28765, S. epidermidis DSM-28765, read-out: MIC S. epiderm.; for MIC S. epiderm.: S. epidermidis DSM-28765
Experimental: (§1) Minimal inhibitory concentration (MIC) of the compounds in the present invention was determined using broth microdilution performed according to EUCAST guidelines (ISO20776-1:2019). S. aureus ATCC29213 and E. faecalis ATCC29212 served as quality control strains.

[2] = system: E. faecium DSM-20477; experiment: MIC testing (broth microdilution, EUCAST); format: cell-based; details: for MIC: Enterococcus faecium, DSM20477, E. faecium DSM-20477; for MIC E. faecium: E. faecium DSM-20477
Experimental: as §1

[3] = system: E. faecium DSM-17050 (vancomycin-resistant, VRE); experiment: MIC testing (broth microdilution, EUCAST); format: cell-based; details: for MIC: Enterococcus faecium
Experimental: as §1

[4] = system: S. aureus Newman; experiment: MIC testing (broth microdilution, EUCAST); format: cell-based; details: for MIC: Staphylococcus aureus, NEWMAN
Experimental: as §1

[5] = system: E. faecalis ATCC-29212; experiment: MIC testing (broth microdilution, EUCAST); format: cell-based; details: for MIC: Enterococcus faecalis, ATCC29212, E. faecalis ATCC-29212; for MIC E. faecalis: E. faecalis ATCC-29212
Experimental: as §1

[6] = system: S. aureus N315 (methicillin-resistant, MRSA); experiment: MIC testing (broth microdilution, EUCAST); format: cell-based; details: for MIC: Staphylococcus aureus, MRSA
Experimental: as §1

[7] = system: zebrafish larvae; experiment: Toxicity in zebrafish larvae (MTC / IC50); format: in vivo; details: for IC50 in zebrafish larvae: exposed 3 days post fertilization, monitored 48 h; for Selectivity Index S. aureus: zebrafish IC50 / MIC S. aureus Newman
Experimental: For toxicity screening, zebrafish larvae were exposed three days post fertilization and monitored for 48 h until five days post fertilization. All malformations and pathophysiological phenotypes were noted and used to determine the inhibitory concentration (IC50) of the respective derivative against zebrafish larvae. The selectivity index (SI) was then calculated using the IC50 and the MIC of either S. aureus or P. falciparum 3D7.

Compound | MIC [1] [µg/mL] | MIC [2] [µg/mL] | MIC [3] [µg/mL] | MIC [4] [µg/mL] | MIC [5] [µg/mL] | MIC [6] [µg/mL] | MIC S. epiderm. [1] [µg/mL] | MIC E. faecium [2] [µg/mL] | MIC VRE [3] [µg/mL] | MIC S. aureus [4] [µg/mL] | MIC E. faecalis [5] [µg/mL] | MIC MRSA [6] [µg/mL] | IC50 in zebrafish larvae [7] [µM] | Selectivity Index S. aureus [7] | Selectivity Index P. falc 3D7 ([7]; zebrafish IC50 vs P. falciparum 3D7)
CC1=C[C@@H](C)[C@H]2[C@@H]3C(=O)[C@@](F)(Cl)C(=O)[C@H](C)C(=O)O[C@@H](C)/C=C/C=C\[C@@H](C)[C@@H]3C=C[C@@H]2C1 [ChA-4′F] | > 6.4 | 0.8 (≈ 1.73 µM) | 1.6 (≈ 3.46 µM) | 0.8 (≈ 1.73 µM) | 1.6 (≈ 3.46 µM) | 1.6 (≈ 3.46 µM) | – | – | – | – | – | – | – | – | –
CC1=C[C@@H](C)[C@H]2[C@@H]3C(=O)[C@@](C)(Cl)C(=O)[C@H](C)C(=O)O[C@@H](C)/C=C/C=C\[C@@H](C)[C@@H]3C=C[C@@H]2C1 [ChA-4′Me] | > 1.6 | 0.8 (≈ 1.74 µM) | 0.8 (≈ 1.74 µM) | 1.6 (≈ 3.49 µM) | 1.6 (≈ 3.49 µM) | 1.6 (≈ 3.49 µM) | – | – | – | – | – | – | – | – | –
C=C1C[C@H]2C=C[C@@H]3[C@@H](C(=O)C(Cl)(Cl)C(=O)[C@H](C)C(=O)O[C@@H](C)/C=C/C=C\[C@H]3C)[C@@H]2[C@H](C)C1Cl (some centres unmarked) [ChA-9′Cl] | 0.4 (≈ 0.778 µM) | 0.2 (≈ 0.389 µM) | 0.2 (≈ 0.389 µM) | 0.4 (≈ 0.778 µM) | 0.4 (≈ 0.778 µM) | 0.4 (≈ 0.778 µM) | – | – | – | – | – | – | – | – | –
CC1=CC(C)C2C(C=CC3C(C)C=CC=CC(C)OC(=O)C(C)C(=O)C(Cl)=C(O)C32)C1 (centres unmarked) [ChB1, reference compound] | – | – | – | – | – | – | 0.4 (≈ 0.899 µM) | 0.1 (≈ 0.225 µM) | 0.1 (≈ 0.225 µM) | 0.2 (≈ 0.449 µM) | 0.2 (≈ 0.449 µM) | 0.8 (≈ 1.8 µM) | – | – | –
CC1=CC(C)C2C(C=CC3C(C)C=CC=CC(C)OC(=O)CC(=O)C(Cl)=C(O)C32)C1 (centres unmarked) [ChB1-2′DM, 2′Demethylchlorotonil] | – | – | – | – | – | – | 1.6 (≈ 3.71 µM) | 0.4 (≈ 0.928 µM) | 0.4 (≈ 0.928 µM) | 0.4 (≈ 0.928 µM) | 0.4 (≈ 0.928 µM) | 0.4 (≈ 0.928 µM) | 33.24 | 35.8 | –
CC1=CC(C)C2C(C=CC3C(C)C=CC=CC(C)OC(=O)C(C)(C)C(=O)C(Cl)=C(O)C32)C1 (centres unmarked) [ChB1-2′Me] | – | – | – | – | – | – | 0.8 (≈ 1.74 µM) | 0.2 (≈ 0.436 µM) | 0.4 (≈ 0.871 µM) | 0.4 (≈ 0.871 µM) | 0.8 (≈ 1.74 µM) | 0.8 (≈ 1.74 µM) | 12.31 | 14.1 | 114.0
CC1=C[C@@H](C)[C@H]2[C@@H]3C(=O)C(Cl)=C([O-])[C@H](C)C(=O)O[C@@H](C)/C=C/C=C\[C@@H](C)[C@@H]3C=C[C@@H]2C1.CC1=C[C@@H](C)[C@H]2[C@@H]3C(=O)C(Cl)=C([O-])[C@H](C)C(=O)O[C@@H](C)/C=C/C=C\[C@@H](C)[C@@H]3C=C[C@@H]2C1.CC1=C[C@@H](C)[C@H]2[C@@H]3C(=O)C(Cl)=C([O-])[C@H](C)C(=O)O[C@@H](C)/C=C/C=C\[C@@H](C)[C@@H]3C=C[C@@H]2C1.[Mg+2].[Na+] [ChB2, reference compound] | – | – | – | – | – | – | 3.2 | 0.4 | 0.8 | 3.2 | 1.6 | >3.2 | – | – | –
